Structures are written as SMILES. In brackets after ≈: the same amount, converted by molar mass.

What all share (type): functional
The test system of one assay is Pseudomonas aeruginosa. The experiment in a line: Antibacterial activity against Pseudomonas aeruginosa ATCC 9027 after 18 hrs by agar dilution method. The note with it: ATCC 9027, 18 h.
The test system of the next assay is Bacillus subtilis. The experiment in a line: Antibacterial activity against Bacillus subtilis ATCC 6633 after 18 hrs by agar dilution method. The note with it: ATCC 6633, 18 h. In general terms: In agar dilution the substance is mixed into plates at graded concentrations.
The subject of a further assay is Staphylococcus aureus. The experiment in a line: Antibacterial activity against Staphylococcus aureus ATCC 6538 after 18 hrs by agar dilution method. The note with it: ATCC 6538, 18 h.
The test system of another assay is Klebsiella pneumoniae. Nature of the assay: Antibacterial activity against Klebsiella pneumoniae ATCC 10031 after 18 hrs by agar dilution method. The note with it: ATCC 10031, 18 h.
Assay [1] relates to Staphylococcus epidermidis. The experiment in a line: Antibacterial activity against Staphylococcus epidermidis ATCC 12228 after 18 hrs by agar dilution method. The note with it: ATCC 12228, 18 h.
The test system of a further assay is Escherichia coli. The experiment in a line: Antibacterial activity against Escherichia coli ATCC 8739 after 18 hrs by agar dilution method. The note with it: ATCC 8739, 18 h.

Usually MIC stands for the lowest concentration found to suppress growth. Low readings indicate inhibition by little substance, high ones a need for much substance. As for `CCn1cc(C(=O)O)c(=O)c2cc(F)c(N3CCN(Cc4ccc([N+](=O)[O-])o4)CC3)cc21`, the MIC worked out at 25 µg/mL (≈ 56.3 µM) against Pseudomonas aeruginosa; 12.5 µg/mL (≈ 28.1 µM) with Bacillus subtilis; 1.56 µg/mL (≈ 3.51 µM) in the assay on Staphylococcus aureus; 6.25 µg/mL (≈ 14.1 µM) with Klebsiella pneumoniae; 3.13 µg/mL (≈ 7.04 µM) in assay [1]; 6.25 µg/mL (≈ 14.1 µM) against Escherichia coli.

As for `O=C(O)c1cn(C2CC2)c2cc(N3CCN(Cc4ccc([N+](=O)[O-])o4)CC3)c(F)cc2c1=O`, the minimum inhibitory concentration (MIC) with Pseudomonas aeruginosa came to 3.13 µg/mL (≈ 6.86 µM); in the assay on Bacillus subtilis, 0.78 µg/mL (≈ 1.71 µM); with Staphylococcus aureus, 0.39 µg/mL (≈ 0.854 µM); against Klebsiella pneumoniae it was 0.39 µg/mL (≈ 0.854 µM); in assay [1], 1.56 µg/mL (≈ 3.42 µM); against Escherichia coli, 1.56 µg/mL (≈ 3.42 µM).

For `COc1c(N2CCN(Cc3ccc([N+](=O)[O-])o3)C(C)C2)c(F)cc2c(=O)c(C(=O)O)cn(C3CC3)c12` (stereo unspecified), the MIC against Pseudomonas aeruginosa stood at 6.25 µg/mL (≈ 12.5 µM); with Bacillus subtilis, 3.13 µg/mL (≈ 6.25 µM); in the assay on Staphylococcus aureus, 0.78 µg/mL (≈ 1.56 µM); in the assay with Klebsiella pneumoniae, 1.56 µg/mL (≈ 3.12 µM); in assay [1], 1.56 µg/mL (≈ 3.12 µM); against Escherichia coli, 3.13 µg/mL (≈ 6.25 µM).

`CCn1cc(C(=O)O)c(=O)c2cc(F)c(N3CCN(Cc4ccc([N+](=O)[O-])o4)CC3)nc21`: the MIC turned out to be 12.5 µg/mL (≈ 28.1 µM) against Pseudomonas aeruginosa; 6.25 µg/mL (≈ 14 µM) against Bacillus subtilis; 0.39 µg/mL (≈ 0.876 µM) in the assay with Staphylococcus aureus; 3.13 µg/mL (≈ 7.03 µM) in the assay with Klebsiella pneumoniae; 3.13 µg/mL (≈ 7.03 µM) in assay [1]; 6.25 µg/mL (≈ 14 µM) in the assay with Escherichia coli.

Take `C[C@H]1COc2c(N3CCN(Cc4ccc([N+](=O)[O-])o4)CC3)c(F)cc3c(=O)c(C(=O)O)cn1c23`: the MIC was found to be 12.5 µg/mL (≈ 26.5 µM) against Pseudomonas aeruginosa; 0.78 µg/mL (≈ 1.65 µM) in the assay on Bacillus subtilis; 1.56 µg/mL (≈ 3.3 µM) in the assay with Staphylococcus aureus; 1.56 µg/mL (≈ 3.3 µM) in the assay with Klebsiella pneumoniae; 0.39 µg/mL (≈ 0.826 µM) in assay [1]; 0.78 µg/mL (≈ 1.65 µM) in the assay with Escherichia coli.

With `O=C(O)c1cn(C2CC2)c2cc(N3CCN(Cc4ccc([N+](=O)[O-])cc4)CC3)c(F)cc2c1=O`, the MIC with Pseudomonas aeruginosa came to 50 µg/mL (≈ 107 µM); in the assay on Bacillus subtilis, 3.13 µg/mL (≈ 6.71 µM); with Staphylococcus aureus, 3.13 µg/mL (≈ 6.71 µM); in the assay on Klebsiella pneumoniae, 12.5 µg/mL (≈ 26.8 µM); in assay [1], 3.13 µg/mL (≈ 6.71 µM); in the assay with Escherichia coli, 3.13 µg/mL (≈ 6.71 µM).

As for `CCn1cc(C(=O)O)c(=O)c2cc(F)c(N3CCN(Cc4ccc([N+](=O)[O-])o4)C(C)C3)c(F)c21` (racemic), the minimal inhibitory concentration (MIC) was 25 µg/mL (≈ 52.5 µM) in the assay with Pseudomonas aeruginosa; 0.097 µg/mL (≈ 0.204 µM) against Bacillus subtilis; 1.56 µg/mL (≈ 3.27 µM) in the assay with Staphylococcus aureus; 6.25 µg/mL (≈ 13.1 µM) in the assay with Klebsiella pneumoniae; 3.13 µg/mL (≈ 6.57 µM) in assay [1]; 0.39 µg/mL (≈ 0.819 µM) with Escherichia coli.

For the molecule `O=C(O)c1cn(C2CC2)c2cc(N3CCNCC3)c(F)cc2c1=O` [CIPROFLOXACIN], the MIC stood at 0.39 µg/mL (≈ 1.18 µM) with Pseudomonas aeruginosa; 0.195 µg/mL (≈ 0.589 µM) with Bacillus subtilis; 0.195 µg/mL (≈ 0.589 µM) in the assay on Staphylococcus aureus; 0.049 µg/mL (≈ 0.148 µM) against Klebsiella pneumoniae; 0.195 µg/mL (≈ 0.589 µM) in assay [1]; 0.097 µg/mL (≈ 0.293 µM) against Escherichia coli.

With `CCn1cc(C(=O)O)c(=O)c2cc(F)c(N3CCNCC3)nc21` [ENOXACIN], the MIC was 1.56 µg/mL (≈ 4.87 µM) with Pseudomonas aeruginosa; 0.195 µg/mL (≈ 0.609 µM) in the assay on Bacillus subtilis; 0.39 µg/mL (≈ 1.22 µM) against Staphylococcus aureus; 0.78 µg/mL (≈ 2.44 µM) in the assay with Klebsiella pneumoniae; 0.78 µg/mL (≈ 2.44 µM) in assay [1]; 0.39 µg/mL (≈ 1.22 µM) against Escherichia coli.

For the molecule `COc1c(N2CCNC(C)C2)c(F)cc2c(=O)c(C(=O)O)cn(C3CC3)c12` (stereo unspecified) [GATIFLOXACIN], the MIC against Pseudomonas aeruginosa was 0.78 µg/mL (≈ 2.08 µM); against Bacillus subtilis it was 0.78 µg/mL (≈ 2.08 µM); in the assay on Staphylococcus aureus, 0.78 µg/mL (≈ 2.08 µM); in the assay on Klebsiella pneumoniae it was 0.195 µg/mL (≈ 0.519 µM); in assay [1] it was 0.78 µg/mL (≈ 2.08 µM); against Escherichia coli it was 1.56 µg/mL (≈ 4.16 µM).

Take `C[C@H]1COc2c(N3CCN(C)CC3)c(F)cc3c(=O)c(C(=O)O)cn1c23.C[C@H]1COc2c(N3CCN(C)CC3)c(F)cc3c(=O)c(C(=O)O)cn1c23.O` [LEVOFLOXACIN]: the MIC in the assay on Pseudomonas aeruginosa came to 3.13 µg/mL; in the assay with Bacillus subtilis, 0.78 µg/mL; against Staphylococcus aureus it was 0.39 µg/mL; in the assay on Klebsiella pneumoniae it was 0.39 µg/mL; in assay [1], 0.39 µg/mL.

For `C[C@H]1COc2c(N3CCNCC3)c(F)cc3c(=O)c(C(=O)O)cn1c23` [N-DESMETHYL LEVOFLOXACIN], the MIC against Pseudomonas aeruginosa is greater than 6.25 µg/mL; with Bacillus subtilis it was 1.56 µg/mL (≈ 4.49 µM); against Staphylococcus aureus, 3.13 µg/mL (≈ 9.01 µM); with Klebsiella pneumoniae it was 0.39 µg/mL (≈ 1.12 µM); in assay [1], 1.56 µg/mL (≈ 4.49 µM).

With `CCn1cc(C(=O)O)c(=O)c2cc(F)c(N3CCNCC3)cc21` [NORFLOXACIN], the MIC in the assay on Pseudomonas aeruginosa stood at 1.56 µg/mL (≈ 4.89 µM); with Bacillus subtilis, 0.195 µg/mL (≈ 0.611 µM); in the assay with Staphylococcus aureus it was 0.39 µg/mL (≈ 1.22 µM); with Klebsiella pneumoniae, 0.39 µg/mL (≈ 1.22 µM); in assay [1], 0.39 µg/mL (≈ 1.22 µM); in the assay with Escherichia coli, 0.195 µg/mL (≈ 0.611 µM).

Values taken from ChEMBL document CHEMBL3046802, “7-Piperazinylquinolones with methylene-bridged nitrofuran scaffold as new antibacterial agents” (2013).
